# Results taken from the supplement of paper PMC4862054.
# Assays:
# Details in all cases: incubation time: 72 h
# [1] = test system: HCC1143; test: normalised viability (% of control), CellTiter-Blue; higher = more viable cells (about 100 = DMSO control)
# Summary of the method: (§1)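 Seeded at 20 µl suspension per well onto compound-loaded 384-well plates, breast cancer cell lines were incubated 72 h. CellTiter-Blue fluorescence at 560/590 nm was then read, with each plate normalised to vehicle (100) and a positive kill control (0). Normalised viability is reported at a single listed concentration of the series.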
# [2] = test system: CAL-51; test: as above
# Summary of the method: as §1
# [3] = test system: HCC1937; test: as above
# Summary of the method: as §1
# [4] = test system: MDA-MB-436; test: as above
# Summary of the method: as §1
# [5] = test system: MDA-MB-468; test: as above
# Summary of the method: as §1
# [6] = test system: MFM-223; test: as above
# Summary of the method: as §1
# [7] = test system: CAL-120; test: as above
# Summary of the method: as §1
# [8] = test system: SK-BR-3; test: as above
# Summary of the method: as §1
# [9] = test system: BT-549; test: as above
# Summary of the method: as §1
# [10] = test system: CAL-85-1; test: as above
# Summary of the method: as §1
# [11] = test system: HCC1599; test: as above
# Summary of the method: as §1
# [12] = test system: Hs578T; test: as above
# Summary of the method: as §1
# [13] = test system: BT-474; test: as above
# Summary of the method: as §1
# [14] = test system: MDA-MB-231; test: as above
# Summary of the method: as §1
# [15] = test system: MDA-MB-453; test: as above
# Summary of the method: as §1
# [16] = test system: CAL-148; test: as above
# Summary of the method: as §1
# [17] = test system: HDQ-P1; test: as above
# Summary of the method: as §1
# [18] = test system: DU-4475; test: as above
# Summary of the method: as §1
# [19] = test system: CAL-51; test: normalised response (% of control), CellTiter-Glo; higher = more viable cells (100 = DMSO, 0 = benzethonium chloride kill control)
# Summary of the method: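 Compound was dispensed into 384-well plates at 5 concentrations in 10-fold steps spanning a 10,000-fold range specific to that compound. Breast cancer cell lines were added as 20 µl suspension and left for 72 h before CellTox Green fluorescence (485/520 nm) and then CellTiter-Glo luminescence, read after 10 min at room temperature. Each reported value is the normalised signal at one concentration, with 0.1 % DMSO set at 100 and a positive kill control at 0 on each plate.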
smiles,measurement,setting,value
C[C@]1(O)C[C@@H](c2nc(-c3ccc4ccc(-c5ccccc5)nc4c3)c3c(N)nccn32)C1 [OSI-906],normalised viability,[1]; 10 nM,99.9%
same,normalised viability,[1]; 1000 nM,85.5%
same,normalised viability,[1]; 10000 nM,75.2%
same,normalised viability,[2]; 3 nM,91.2%
same,normalised viability,[2]; 30 nM,97.5%
same,normalised viability,[2]; 100 nM,96.3%
same,normalised viability,[3]; 10 nM,92.8%
same,normalised viability,[3]; 1000 nM,79.7%
same,normalised viability,[3]; 10000 nM,48.4%
same,normalised viability,[4]; 10 nM,85.2%
same,normalised viability,[4]; 1000 nM,96%
same,normalised viability,[4]; 10000 nM,71.7%
same,normalised viability,[5]; 10 nM,104%
same,normalised viability,[5]; 1000 nM,86.5%
same,normalised viability,[5]; 10000 nM,84.6%
same,normalised viability,[6]; 10 nM,98.3%
same,normalised viability,[6]; 1000 nM,91.6%
same,normalised viability,[6]; 10000 nM,74.5%
same,normalised viability,[7]; 10 nM,96.6%
same,normalised viability,[7]; 1000 nM,84.2%
same,normalised viability,[7]; 10000 nM,56.2%
same,normalised viability,[8]; 10 nM,88.7%
same,normalised viability,[8]; 1000 nM,79.7%
same,normalised viability,[8]; 10000 nM,54.3%
same,normalised viability,[9]; 10 nM,95.4%
same,normalised viability,[9]; 1000 nM,89.1%
same,normalised viability,[9]; 10000 nM,41.3%
same,normalised viability,[10]; 3 nM,97.3%
same,normalised viability,[10]; 30 nM,85.7%
same,normalised viability,[10]; 100 nM,86.4%
same,normalised viability,[11]; 10 nM,104%
same,normalised viability,[11]; 1000 nM,76.8%
same,normalised viability,[11]; 10000 nM,78.9%
same,normalised viability,[12]; 10 nM,103%
same,normalised viability,[12]; 1000 nM,95.2%
same,normalised viability,[12]; 10000 nM,71.4%
same,normalised viability,[13]; 10 nM,102%
same,normalised viability,[13]; 1000 nM,91.5%
same,normalised viability,[13]; 10000 nM,78.4%
same,normalised viability,[14]; 10 nM,84.4%
same,normalised viability,[14]; 1000 nM,79.7%
same,normalised viability,[14]; 10000 nM,74.3%
same,normalised viability,[15]; 3 nM,97.9%
same,normalised viability,[15]; 30 nM,92.9%
same,normalised viability,[15]; 100 nM,78.6%
same,normalised viability,[16]; 3 nM,96.8%
same,normalised viability,[16]; 30 nM,89.8%
same,normalised viability,[16]; 100 nM,91.7%
same,normalised viability,[17]; 3 nM,79.4%
same,normalised viability,[17]; 30 nM,83.9%
same,normalised viability,[17]; 100 nM,85.4%
same,normalised viability,[18]; 3 nM,92.7%
same,normalised viability,[18]; 30 nM,104%
same,normalised viability,[18]; 100 nM,88.8%
CC[C@@H]1C(=O)OC[C@@H]1Cc1cncn1C [Pilocarpine],normalised viability,[1]; 40 nM,87.5%
same,normalised viability,[1]; 4000 nM,90.3%
same,normalised viability,[1]; 40000 nM,88.4%
same,normalised viability,[2]; 12 nM,110%
same,normalised viability,[2]; 120 nM,103%
same,normalised viability,[2]; 400 nM,98.2%
same,normalised viability,[3]; 40 nM,109%
same,normalised viability,[3]; 4000 nM,107%
same,normalised viability,[3]; 40000 nM,97.4%
same,normalised viability,[4]; 40 nM,95.6%
same,normalised viability,[4]; 4000 nM,95%
same,normalised viability,[4]; 40000 nM,104%
same,normalised viability,[5]; 40 nM,95.2%
same,normalised viability,[5]; 4000 nM,99%
same,normalised viability,[5]; 40000 nM,109%
same,normalised viability,[6]; 40 nM,96.4%
same,normalised viability,[6]; 4000 nM,90.7%
same,normalised viability,[6]; 40000 nM,63.7%
same,normalised viability,[7]; 40 nM,85.2%
same,normalised viability,[7]; 4000 nM,107%
same,normalised viability,[7]; 40000 nM,113%
same,normalised viability,[8]; 40 nM,106%
same,normalised viability,[8]; 4000 nM,115%
same,normalised viability,[8]; 40000 nM,136%
same,normalised viability,[9]; 40 nM,95.5%
same,normalised viability,[9]; 4000 nM,114%
same,normalised viability,[9]; 40000 nM,100%
same,normalised viability,[10]; 12 nM,98.1%
same,normalised viability,[10]; 120 nM,98.3%
same,normalised viability,[10]; 400 nM,101%
same,normalised viability,[11]; 40 nM,104%
same,normalised viability,[11]; 4000 nM,92.2%
same,normalised viability,[11]; 40000 nM,92.8%
same,normalised viability,[12]; 40 nM,101%
same,normalised viability,[12]; 4000 nM,102%
same,normalised viability,[12]; 40000 nM,108%
same,normalised viability,[13]; 40 nM,108%
same,normalised viability,[13]; 4000 nM,158%
same,normalised viability,[13]; 40000 nM,116%
same,normalised viability,[14]; 40 nM,94.9%
same,normalised viability,[14]; 4000 nM,116%
same,normalised viability,[14]; 40000 nM,118%
same,normalised viability,[15]; 12 nM,118%
same,normalised viability,[15]; 120 nM,93.5%
same,normalised viability,[15]; 400 nM,100%
same,normalised viability,[16]; 12 nM,95.5%
same,normalised viability,[16]; 120 nM,101%
same,normalised viability,[16]; 400 nM,104%
same,normalised viability,[17]; 12 nM,123%
same,normalised viability,[17]; 120 nM,137%
same,normalised viability,[17]; 400 nM,118%
same,normalised viability,[18]; 12 nM,103%
same,normalised viability,[18]; 120 nM,92.1%
same,normalised viability,[18]; 400 nM,107%
CC[C@@H]1C(=O)OC[C@@H]1Cc1cncn1C [Pilocarpine] (40000 nM),normalised response,[19],134%
COc1cc(F)c(F)c(Nc2ccc(I)cc2F)c1NS(=O)(=O)C1(C[C@H](O)CO)CC1 [RDEA119],normalised viability,[1]; 10 nM,117%
same,normalised viability,[1]; 1000 nM,62.8%
same,normalised viability,[1]; 10000 nM,61.7%
same,normalised viability,[2]; 3 nM,97%
same,normalised viability,[2]; 30 nM,84.5%
same,normalised viability,[2]; 100 nM,81.2%
same,normalised viability,[3]; 10 nM,102%
same,normalised viability,[3]; 1000 nM,72.4%
same,normalised viability,[3]; 10000 nM,62.8%
same,normalised viability,[4]; 10 nM,93.3%
same,normalised viability,[4]; 1000 nM,103%
same,normalised viability,[4]; 10000 nM,84.6%
same,normalised viability,[5]; 10 nM,94.2%
same,normalised viability,[5]; 1000 nM,78.3%
same,normalised viability,[5]; 10000 nM,51%
same,normalised viability,[6]; 10 nM,94.8%
same,normalised viability,[6]; 1000 nM,75.7%
same,normalised viability,[6]; 10000 nM,54.7%
same,normalised viability,[7]; 10 nM,103%
same,normalised viability,[7]; 1000 nM,64.5%
same,normalised viability,[7]; 10000 nM,47.3%
same,normalised viability,[8]; 10 nM,110%
same,normalised viability,[8]; 1000 nM,81.8%
same,normalised viability,[8]; 10000 nM,100%
same,normalised viability,[9]; 10 nM,98.7%
same,normalised viability,[9]; 1000 nM,87.5%
same,normalised viability,[9]; 10000 nM,66.4%
same,normalised viability,[10]; 3 nM,95.2%
same,normalised viability,[10]; 30 nM,98.8%
same,normalised viability,[10]; 100 nM,97.3%
same,normalised viability,[11]; 10 nM,92.5%
same,normalised viability,[11]; 1000 nM,78.6%
same,normalised viability,[11]; 10000 nM,82%
same,normalised viability,[12]; 10 nM,103%
same,normalised viability,[12]; 1000 nM,69.7%
same,normalised viability,[12]; 10000 nM,54.5%
same,normalised viability,[13]; 10 nM,108%
same,normalised viability,[13]; 1000 nM,103%
same,normalised viability,[13]; 10000 nM,110%
same,normalised viability,[14]; 10 nM,73.7%
same,normalised viability,[14]; 1000 nM,28.7%
same,normalised viability,[14]; 10000 nM,29.3%
same,normalised viability,[15]; 3 nM,87.9%
same,normalised viability,[15]; 30 nM,95.5%
same,normalised viability,[15]; 100 nM,98.7%
same,normalised viability,[16]; 3 nM,91.9%
same,normalised viability,[16]; 30 nM,80.7%
same,normalised viability,[16]; 100 nM,80%
same,normalised viability,[17]; 3 nM,81.5%
same,normalised viability,[17]; 30 nM,88%
same,normalised viability,[17]; 100 nM,110%
same,normalised viability,[18]; 3 nM,91.4%
same,normalised viability,[18]; 30 nM,61.2%
same,normalised viability,[18]; 100 nM,28.2%
CC(C)(C)c1cnc(CSc2cnc(NC(=O)C3CCNCC3)s2)o1 [SNS-032] (10000 nM),normalised response,[19],16.7%
Cn1cnc2c(F)c(Nc3ccc(Br)cc3Cl)c(C(=O)NOCCO)cc21 [Selumetinib] (10000 nM),normalised response,[19],106%
Nc1nc2[nH]cnc2c(=S)[nH]1 [Thioguanine] (10000 nM),normalised response,[19],28.6%
